Source: paper PMC12638514, “Identification of Novel β‐Lactam Derivatives as Proteasome Inhibitors for Antitumor Therapy” (Archiv Der Pharmazie, 2025)

How the values were obtained:
[1] = molecular target: T1, human constitutive proteasome, β5 subunit (CT‐L) (Homo sapiens, UniProt P20618+P28074); experiment: In vitro 20S proteasome chymotrypsin‐like (CT‐L, β5) inhibition assay; assay type: biochemical; details: CT‐L activity, substrate Suc‐LLVY‐AMC; mean ± SD of three independent experiments
T1 construct: gift of Dr. Jiang-ping Wu (Notre-Dame Hospital, Montreal)
Description: (§1) The human constitutive proteasome was generously provided by Dr. Jiang‐ping Wu (Notre‐Dame Hospital, Montreal, QC, Canada). […] The proteasome activity assay was performed in a total volume of 50 μL, with all samples diluted in Tris–HCl buffer (100 mM Tris–HCl, pH 8.0). […] 10 μL purified human proteasome (25 μg/mL) was added to 1 μL of each compound; after incubation for 15 min, the mixture was combined with 39 μL of the fluorogenic substrate. […] The IC50 values were calculated using the software GraphPad Prism4, employing the “sigmoidal dose–response (variable slope)” equation for curve fitting.

[2] = tested on: rabbit 20S proteasome β5 (CT‐L); design: method as in PMID 24452398, PMID 21946808; details: Figure 2; cited from earlier work
RS4;11 cells [3] = experiment: Apoptosis assay by flow cytometry; assay type: cell-based, human; details: 1, 2 and 4 μM, 12 h
Description: (§2) Apoptosis was assessed using an Annexin V‐APC/7AAD apoptosis detection kit (GA1023‐KGA1026, Keygentec, Nanjing, China), followed by flow cytometry analysis. Briefly, cells were treated with the indicated drug concentration and durations or left untreated, then washed twice with PBS, stained with Annexin V‐APC/7AAD, and analyzed using flow cytometry (CytoFLEX flow cytometer, Beckman Coulter Inc.). RS4;11 cells were exposed to various concentrations of the compound or DMSO. Protein lysates were prepared using 4 × Laemmli sample buffer (161073, BIORAD, Richmond, USA). Protein samples were separated by SDS‐polyacrylamide gel electrophoresis (BIO‐RAD, Richmond, USA) and subsequently transferred to nitrocellulose (NC) membranes. Following a 90‐min blocking step with 5% skim milk at room temperature, the NC membranes were incubated with the primary antibody at 4 °C overnight, followed by three washes with TBST for 10 min each. The NC membranes were then incubated with secondary antibodies for 1.5 h at room temperature. Signals were detected by ECL (KF8001&KF8003, Affinity, China) using the BIO‐RAD ChemiDoc Touch Imaging System.

RS4;11 cells [4] = experiment: Cell proliferation inhibition assay (CCK8), RS4;11; assay type: cell-based, human; details: mean ± SD
Description: (§3) MV‐4‐11 cells (1 × 10^4 cells/well), RPMI‐8226 cells (8 × 10^3 cells/well), Molt4 cells (2 × 10^3 cells/well), RS4;11 cells (2 × 10^4 cells/well), and PBMC cells (2 × 10^4 cells/well) were seeded in 96‐well plates (Corning, 3599). Cells were treated with either 0.2% DMSO or fivefold dilutions of compounds from 10 mM stock solutions in DMSO (0.2% final concentration of DMSO) for 72 h. 10 μL of CCK8 reagent was added to each well, and the plates were incubated at 37°C for 3 h. Absorbance was measured at 450 nm and 650 nm using a Spectra Max Molecular Devices microplate reader. The final data were calibrated by OD450 nm‐OD650 nm.

MV‐4‐11 cells = experiment: Cell proliferation inhibition assay (CCK8), MV‐4‐11; assay type: cell-based; details: Homo sapiens, MV4-11, 72 h, mean ± SD
Description: as §3

RS4;11 cells [5] = experiment: Western blot of apoptosis‐related and ubiquitinated proteins; assay type: cell-based, human
Description: as §2

[6] = molecular target: proteasome β2 subunit (T‐L) (Homo sapiens, UniProt P49720+Q99436); experiment: Proteasome trypsin‐like (T‐L, β2) inhibition; assay type: biochemical; details: T‐L activity; mean ± SD of three independent experiments
Description: as §1

RPMI‐8226 cells = experiment: Cell proliferation inhibition assay (CCK8), RPMI‐8226; assay type: cell-based; details: Homo sapiens, 72 h, mean ± SD
Description: as §3

Molt4 cells = experiment: Cell proliferation inhibition assay (CCK8), Molt4; assay type: cell-based; details: Homo sapiens, MOLT-4, 72 h, mean ± SD
Description: as §3

[7] = molecular target: proteasome β1 subunit (C‐L) (Homo sapiens, UniProt P28072+Q99436); experiment: Proteasome caspase‐like (C‐L, β1) inhibition; assay type: biochemical; details: C‐L activity; mean ± SD of three independent experiments
Description: as §1

[8] = tested on: normal peripheral blood mononuclear cells (PBMC); experiment: Cell proliferation inhibition assay (CCK8), PBMC; assay type: cell-based; details: 72 h, mean ± SD, read-out: IC50 PBMC‐3Day
Description: as §3

IC50 [1] | IC50 (RS4;11 cells [4]; Homo sapiens, RS4-11, 72 h) | IC50 [6] | IC50 (Molt4 cells) | IC50 [7] | Compound | IC50 (MV‐4‐11 cells) | IC50 (RPMI‐8226 cells) | other results
> 10000 nM |  |  |  |  | C[C@H](NC(=O)c1cnccn1)C(=O)N[C@@H](CCc1ccccc1)C(=O)N[C@@H]1CN(c2ccc(F)cc2)C1=O [Compound 71] |  |  | 
 |  |  |  |  | CC[C@H](C)[C@@H]1C(=O)O[C@H]1C(=O)NCCC[C@H](NC(=O)[C@H](C)N)C(=O)O [Belactosin C] |  |  | IC50 [2]: 210 nM
142 ± 30.1 nM | < 1000 nM | > 10000 nM | 3780 ± 270 nM | > 10000 nM | COc1ccc(N2CC(NC(=O)C(CCc3ccccc3)NC(=O)C(CC(=O)NCC(C)(C)C)NC(=O)c3cccnc3)C2=O)cc1 [Compound 78, (S)‐N ^1‐[(S)‐1‐{[(R)‐1‐(4‐Methoxyphenyl)‐2‐oxoazetidin‐3‐yl]amino}‐1‐oxo‐4‐phenylbutan‐2‐yl]‐N ^4‐neopentyl‐2‐(nicotinamido)succinimide] | 2780 ± 410 nM | 2340 ± 340 nM | induction of apoptosis in RS4;11 cells (RS4;11 cells [3]): triggered cell apoptosis in a dose‐dependent manner; IC50 (RS4;11 cells [4]; 72 h): 500 ± 130 nM; activation and cleavage of caspase‐3 and PARP (RS4;11 cells [5]; RS4;11, 1, 2 and 4 μM, 8 h, western blot): detectable across all samples; accumulation of poly‐ubiquitinated proteins (RS4;11 cells [5]; RS4;11, western blot): significant accumulation of poly‐ubiquitinated proteins; IC50 [8]: 17200 ± 1930 nM
288 ± 57.2 nM | 1520 ± 670 nM | > 10000 nM | > 10000 nM | > 10000 nM | CC(C)(C)CNC(=O)C[C@H](NC(=O)c1cnccn1)C(=O)N[C@@H](CCc1ccccc1)C(=O)N[C@H]1CN(c2ccc(F)cc2)C1=O [Compound 69] | > 20000 nM | 10200 ± 760 nM | 
> 10000 nM |  |  |  |  | O=C(N[C@@H](CCc1ccccc1)C(=O)N[C@@H](CCc1ccccc1)C(=O)N[C@@H]1CN(c2ccc(F)cc2)C1=O)c1cccnc1 [Compound 73] |  |  | 
 | 5.87 ± 0.93 nM |  | 13.3 ± 2.47 nM |  | CC(C)C[C@H](NC(=O)[C@H](Cc1ccccc1)NC(=O)c1cnccn1)B(O)O [Bortezomib, reference compound] | 5.15 ± 1.09 nM | 3.64 ± 0.52 nM | IC50 [8]: 1.57 ± 0.19 nM
132 ± 14.8 nM |  | > 10000 nM |  | > 10000 nM | CN(C)c1ccc(N2C[C@@H](NC(=O)[C@H](CCc3ccccc3)NC(=O)[C@H](CC(=O)NCC(C)(C)C)NC(=O)c3cccnc3)C2=O)cc1 [Compound 77, (S)‐N ^1‐[(S)‐1‐{[(R)‐1‐[4‐(Dimethylamino)phenyl]‐2‐oxoazetidin‐3‐yl]amino}‐1‐oxo‐4‐phenylbutan‐2‐yl]‐N ^4‐neopentyl‐2‐(nicotinamido)succinamide] |  |  | 
> 10000 nM |  |  |  |  | C[C@H](NC(=O)c1cccnc1)C(=O)N[C@@H](CCc1ccccc1)C(=O)N[C@@H]1CN(c2ccc(F)cc2)C1=O [Compound 70] |  |  | 
> 10000 nM |  |  |  |  | CC(C)[C@H](NC(=O)c1cccnc1)C(=O)N[C@@H](CCc1ccccc1)C(=O)N[C@@H]1CN(c2ccc(F)cc2)C1=O [Compound 72] |  |  | 
> 10000 nM |  |  |  |  | CC(C)(C)CNC(=O)C[C@H](NC(=O)c1cnccn1)C(=O)N[C@@H](CCc1ccccc1)C(=O)N[C@@H]1CN(c2ccc(F)cc2)C1=O [Compound 68] |  |  | 
282 ± 33.6 nM | 990 ± 170 nM | > 10000 nM | 2370 ± 230 nM | > 10000 nM | CC(C)(C)CNC(=O)C[C@H](NC(=O)c1cccnc1)C(=O)N[C@@H](CCc1ccccc1)C(=O)N[C@@H]1CN(c2ccc(C(F)(F)F)cc2)C1=O [Compound 79, (S)‐N ^4‐Neopentyl‐2‐(nicotinamido)‐N ^1‐[(S)‐1‐oxo‐1‐{[(R)‐2‐oxo‐1‐[4‐(trifluoromethyl)phenyl]azetidin‐3‐yl]amino}‐4‐phenylbutan‐2‐yl]succinamide] | 2750 ± 460 nM | 3440 ± 440 nM | 
72 ± 14.9 nM | 860 ± 240 nM | > 10000 nM | > 10000 nM | > 10000 nM | Cc1ccc(N2C[C@@H](NC(=O)[C@H](CCc3ccccc3)NC(=O)[C@H](CC(=O)NCC(C)(C)C)NC(=O)c3cccnc3)C2=O)cc1 [Compound 76, (S)‐N ^4‐Neopentyl‐2‐(nicotinamido)‐N ^1‐[(S)‐1‐oxo‐1‐{[(R)‐2‐oxo‐1‐(p‐tolyl)azetidin‐3‐yl]amino}‐4‐phenylbutan‐2‐yl]succinamide] | > 20000 nM | 8050 ± 1170 nM | 
> 10000 nM |  |  |  |  | O=C(N[C@@H](Cc1ccccc1)C(=O)N[C@@H](CCc1ccccc1)C(=O)N[C@@H]1CN(c2ccc(F)cc2)C1=O)c1cccnc1 [Compound 74] |  |  | 
> 10000 nM |  |  |  |  | CSCC[C@H](NC(=O)c1cccnc1)C(=O)N[C@@H](CCc1ccccc1)C(=O)N[C@@H]1CN(c2ccc(F)cc2)C1=O [Compound 75] |  |  | 
